# Paper PMC10041525, “New Dual Inhibitors of Bacterial Topoisomerases with Broad-Spectrum Antibacterial Activity and In Vivo Efficacy against Vancomycin-Intermediate Staphylococcus aureus” (Journal of Medicinal Chemistry, 2023)
# Where two headings read alike, the source gives them in different places.
# Legend:
# [1] = system: Enterococcus faecalis ATCC 29212; experiment: MIC broth microdilution (CLSI); format: cell-based, E. faecalis
# Protocol: (§1) MICs (Tables 1 and S1–S3) were determined with a standard serial broth microdilution technique according to Clinical and Laboratory Standards Institute (CLSI) guidelines.[45] Cation-adjusted Mueller Hinton broth 2 (MHBII) was used for bacterial growth under standard laboratory conditions and for antimicrobial susceptibility tests. MHBII broth was prepared by dissolving 22 g of MHBII powder [containing beef extract (3 g), acid hydrolysate of casein (17.5 g), and starch (1.5 g); Becton Dickinson and Co.] in 1 L of water. To prepare MHBII agar, 14 g of agar (Bacto; Molar Chemicals) was added to 1 L of broth.
# (§2) Bacterial strains were inoculated onto MHBII agar plates and grown overnight at 37 °C. Next, three individual colonies from each strain were inoculated into 1 mL of MHBII medium and propagated at 37 °C overnight, with agitation at 250 rpm. For Enterococcus sp., the cells were plated in brain–heart infusion [(BHI) medium] agar plates, and BHI broth was used to determine the MICs. […] The highest final DMSO concentration in the experiments was 0.64% (in the case of the 64 μg/mL concentration of the inhibitor). Following the dilutions, each well was seeded with 5 × 10^4 bacterial cells (in 100 μL final volume). Each measurement was performed in three parallel replicates, and to avoid possible edge effects in the microwell plates, the outside rows (A, H) were filled with sterile medium. Following the inoculations, the plates were covered with the lids and wrapped in polyethylene plastic bags, to minimize evaporation but to allow O2 transfer. The plates were incubated at 37 °C under continuous shaking at 150 rpm for 18 h. After incubation, the OD600 of each well was measured using a microplate reader (Synergy 2; Biotek). The MICs were defined as the antibiotic concentrations which inhibited the growth of the bacterial cultures; that is, the drug concentration where the average OD600 increment of the three technical replicates was below 1.5-fold the background OD increment.
# E. faecium ATCC 700221 = experiment: MIC broth microdilution (CLSI); format: cell-based; details: Enterococcus faecium, ATCC700221
# Protocol: as §1, §2
# [2] = system: S. aureus (MRSA) ATCC 43300; experiment: MIC broth microdilution (CLSI); format: cell-based; details: Staphylococcus aureus
# Protocol: as §1, §2
# [3] = system: Enterobacter cloacae spp. cloacae ATCC 13047; experiment: MIC broth microdilution (CLSI); format: cell-based
# Protocol: as §1, §2
# K. pneumoniae ATCC 10031 = experiment: MIC broth microdilution (CLSI); format: cell-based
# Protocol: as §1, §2
# P. aeruginosa ATCC 27853 = experiment: MIC broth microdilution (CLSI); format: cell-based; details: Pseudomonas aeruginosa, ATCC27853
# Protocol: as §1, §2
# [4] = system: S. aureus (VISA) ATCC 700699; experiment: MIC broth microdilution (CLSI); format: cell-based
# Protocol: as §1, §2
# E. coli ATCC 25922 = experiment: MIC broth microdilution (CLSI); format: cell-based; details: Escherichia coli, ATCC25922
# Protocol: as §1, §2
# A. baumannii ATCC 17978 = experiment: MIC broth microdilution (CLSI); format: cell-based; details: Acinetobacter baumannii, ATCC17978
# Protocol: (§3) Cation-adjusted Mueller Hinton broth 2 (MHBII) was used for bacterial growth under standard laboratory conditions and for antimicrobial susceptibility tests. MHBII broth was prepared by dissolving 22 g of MHBII powder [containing beef extract (3 g), acid hydrolysate of casein (17.5 g), and starch (1.5 g); Becton Dickinson and Co.] in 1 L of water. To prepare MHBII agar, 14 g of agar (Bacto; Molar Chemicals) was added to 1 L of broth.
# (§4) Bacterial strains were inoculated onto MHBII agar plates and grown overnight at 37 °C. Next, three individual colonies from each strain were inoculated into 1 mL of MHBII medium and propagated at 37 °C overnight, with agitation at 250 rpm. For Enterococcus sp., the cells were plated in brain–heart infusion [(BHI) medium] agar plates, and BHI broth was used to determine the MICs. […] Following the dilutions, each well was seeded with 5 × 10^4 bacterial cells (in 100 μL final volume). Each measurement was performed in three parallel replicates, and to avoid possible edge effects in the microwell plates, the outside rows (A, H) were filled with sterile medium. Following the inoculations, the plates were covered with the lids and wrapped in polyethylene plastic bags, to minimize evaporation but to allow O2 transfer. […] After incubation, the OD600 of each well was measured using a microplate reader (Synergy 2; Biotek).
# S. aureus ATCC 29213 = experiment: MIC broth microdilution (CLSI); format: cell-based; details: Staphylococcus aureus, ATCC29213
# Protocol: as §3, §4
# topo IV from E. coli = target: T1, topo IV from E. coli (Escherichia coli, UniProt P20083); experiment: relaxation HTS plate assay; format: biochemical
# T1 construct: purchased Inspiralis
# Protocol: (§5) All compounds were tested for their inhibitory activities against DNA gyrase and topo IV from E. coli in supercoiling and relaxation high-throughput plate assays, respectively. Our new series of inhibitors were then tested against a panel of Gram-positive and Gram-negative bacteria.
# (§6) Seven concentrations of the inhibitors were used to determine IC50 values which were then calculated with GraphPad Prism 6.0 software. Three independent measurements were performed to determine IC50 values, and mean values are reported as the final result.
# DNA gyrase from E. coli = target: T2, DNA gyrase from E. coli (Escherichia coli, UniProt P0AES6); experiment: supercoiling HTS plate assay; format: biochemical; details: IC50 [nM] E. coli DNA gyrase
# T2 construct: purchased Inspiralis
# Protocol: as §5, §6
# P. aeruginosa PAO1 = experiment: MIC broth microdilution (CLSI); format: cell-based; details: Pseudomonas aeruginosa; PAO1 used for 7l, 8b, 14, 16b, 16c
# Protocol: as §1, §2
# (§7) cMIC, minimum inhibitory concentration
# (§8) Bacterial strains that were used: S. aureus ATCC 29213, S. aureus (MRSA) ATCC 43300, S. aureus (VISA) ATCC 700699, E. faecalis ATCC 29212, E. faecium ATCC 700221,
# (§9) E. coli ATCC 25922, P. aeruginosa ATCC 27853 (PAO1 for compounds 7l, 8b, 14), A. baumannii ATCC 17978 (ATCC 19606 for compounds 7l, 8b, 14), K. pneumoniae ATCC
# (§10) Measurements were performed according to the Clinical and Laboratory Standards Institute guidelines, with three independent measurements.
# A. baumannii ATCC 19606 = experiment: MIC broth microdilution (CLSI); format: cell-based; details: Acinetobacter baumannii, ATCC19606
# Protocol: as §1, §2, §7, §8, §9, §10
# K. pneumoniae ATCC 13883 = experiment: MIC broth microdilution (CLSI); format: cell-based; details: Klebsiella pneumoniae, ATCC13883; ATCC 13883 used for 7l, 8b, 14, 16b, 16c
# Protocol: as §1, §2, §7, §8, §9, §10
# in vitro = in vitro ADME, mouse; details: male, CD-1, mouse; for fraction unbound at 4 h, 5 μM: plasma (pooled)
# Protocol: The PPB studies were performed by Selvita d.o.o. (Zagreb, Croatia) in mouse plasma (CD-1 male, pooled, commercially obtained from BioIVT) via equilibrium dialysis. Compounds were assayed at 5 μM (0.5% DMSO) in two replicates, and incubation time was 4 h at 37 °C. Samples were taken at 0 min and 4 h. Aliquots from both buffer and plasma compartment matrix were matched and mixed with 6 volumes of STOP solution (acetonitrile/methanol (2:1) + internal standard – diclofenac) and analyzed by LC–MS/MS. Assay controls were caffeine (low), verapamil (moderate binding), and nicardipine (very high binding), and protein contamination was checked.
# [5] = mitochondrial toxicity glu/gal assay; format: cell-based; details: human, 0.1 µM, read-out: cell viability (ATP), % of control
# Protocol: HepG2 cells were seeded in two 96-well plates at a density of 50,000 cells per well in 100 μL of growth medium. For the first plate, the growth medium contained glucose and for the second plate, it contained galactose. Cells were incubated overnight in a 5% CO2 atmosphere at 37 °C and allowed to attach onto the wells. […] The medium contained positive control (Rotenone). […] Luminescence was measured with Tecan Infinite 200 pro luminometer, and the values from each well treated with compound were compared to the values given by the negative control (medium only). The inhibition of mitochondrial function was determined by comparing ATP levels in galactose and glucose exposed cells. […]
# [6] = read-out: MIC [µg/mL] (A. baumannii ATCC 17978)
# [7] = read-out: MIC [µg/mL](S. aureus ATCC 29213)
# [8] = ATCC 19606 used for 7l, 8b, 14, 16b, 16c, read-out: MIC
# [9] = read-out: MIC [µg/mL] (A. baumannii ATCC 19606 for compounds 7l, 8b, 14)
# T1 sequence (P0AFI2 whole entry): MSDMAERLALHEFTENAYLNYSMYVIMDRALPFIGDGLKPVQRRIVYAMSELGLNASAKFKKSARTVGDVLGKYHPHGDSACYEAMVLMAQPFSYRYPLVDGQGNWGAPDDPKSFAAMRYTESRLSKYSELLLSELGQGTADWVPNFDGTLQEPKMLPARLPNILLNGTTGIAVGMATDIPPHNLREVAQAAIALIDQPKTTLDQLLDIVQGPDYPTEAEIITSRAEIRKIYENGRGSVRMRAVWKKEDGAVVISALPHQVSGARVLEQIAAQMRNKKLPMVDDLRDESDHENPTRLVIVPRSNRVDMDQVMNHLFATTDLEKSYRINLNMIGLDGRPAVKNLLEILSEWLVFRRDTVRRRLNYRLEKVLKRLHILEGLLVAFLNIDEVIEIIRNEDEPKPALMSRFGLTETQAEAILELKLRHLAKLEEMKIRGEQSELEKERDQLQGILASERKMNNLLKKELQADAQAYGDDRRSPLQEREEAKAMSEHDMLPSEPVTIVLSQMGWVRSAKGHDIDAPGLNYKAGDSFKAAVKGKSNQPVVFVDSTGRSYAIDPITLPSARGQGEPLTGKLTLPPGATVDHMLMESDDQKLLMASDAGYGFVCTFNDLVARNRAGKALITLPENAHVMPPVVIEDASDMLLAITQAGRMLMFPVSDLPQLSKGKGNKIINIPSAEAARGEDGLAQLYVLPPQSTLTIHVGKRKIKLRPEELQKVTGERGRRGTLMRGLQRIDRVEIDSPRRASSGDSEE
# T1 sequence (P20083 whole entry): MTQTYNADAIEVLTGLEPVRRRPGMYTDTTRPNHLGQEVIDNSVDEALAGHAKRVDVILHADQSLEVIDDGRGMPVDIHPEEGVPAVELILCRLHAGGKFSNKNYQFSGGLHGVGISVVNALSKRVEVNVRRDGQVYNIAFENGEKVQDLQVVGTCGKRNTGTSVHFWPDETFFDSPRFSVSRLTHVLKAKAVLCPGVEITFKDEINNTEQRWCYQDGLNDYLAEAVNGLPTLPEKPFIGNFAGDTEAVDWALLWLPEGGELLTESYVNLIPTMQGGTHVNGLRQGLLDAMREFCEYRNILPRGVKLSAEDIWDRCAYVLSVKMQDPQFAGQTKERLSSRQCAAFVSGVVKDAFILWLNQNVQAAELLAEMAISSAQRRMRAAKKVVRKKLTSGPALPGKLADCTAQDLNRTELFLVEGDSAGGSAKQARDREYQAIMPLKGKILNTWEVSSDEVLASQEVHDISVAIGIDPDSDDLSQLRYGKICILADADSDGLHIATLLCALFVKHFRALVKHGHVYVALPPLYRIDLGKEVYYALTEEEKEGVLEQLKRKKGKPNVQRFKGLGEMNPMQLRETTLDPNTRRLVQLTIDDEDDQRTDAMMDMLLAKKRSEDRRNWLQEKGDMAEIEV
SMILES,MIC (E. coli ATCC 25922; read-out: MIC) [µg/mL],MIC (A. baumannii ATCC 17978; [6]) [µg/mL],MIC (S. aureus ATCC 29213; read-out: MIC) [µg/mL],MIC (S. aureus ATCC 29213; [7]) [µg/mL],IC50 (topo IV from E. coli; IC50 [nM] E. coli TopoIV) [nM],IC50 (DNA gyrase from E. coli) [nM],MIC (P. aeruginosa PAO1) [µg/mL],MIC (A. baumannii ATCC 19606; [8]) [µg/mL],MIC (A. baumannii ATCC 19606; [9]) [µg/mL],MIC (K. pneumoniae ATCC 13883) [µg/mL],other results
"Cc1[nH]c(C(=O)Nc2nc3c(N4CC[C@H](N)C4)cc(C(=O)O)cc3s2)c(Cl)c1Cl.Cl [8a, (S)-1-(6-Carboxy-2-(3,4-dichloro-5-methyl-1H-pyrrole-2-carboxamido)benzo[d]thiazol-4-yl)pyrrolidin-3-aminium Chloride]",> 32,> 32,32,32,38 ± 10,< 10,–,–,–,–,"MIC ([1]; Enterococcus faecalis, ATCC29212, read-out: MIC): 32 µg/mL; MIC (E. faecium ATCC 700221; read-out: MIC): 32 µg/mL; MIC ([2]; read-out: MIC): 16 µg/mL; MIC ([2]; read-out: MIC [µg/mL](S. aureus MRSA ATCC4330)): 16 µg/mL; MIC ([3]; Enterobacter cloacae, ATCC13047, read-out: MIC): > 32 µg/mL; MIC (K. pneumoniae ATCC 10031): 4 µg/mL; MIC (K. pneumoniae ATCC 10031; Klebsiella pneumoniae, ATCC10031, read-out: MIC): 4 µg/mL; MIC (P. aeruginosa ATCC 27853; read-out: MIC): > 32 µg/mL; MIC ([4]; Staphylococcus aureus, read-out: MIC): 8 µg/mL; MIC (A. baumannii ATCC 17978; read-out: MIC): > 32 µg/mL; IC50 (topo IV from E. coli; IC50): < 100 nM"
"Cc1[nH]c(C(=O)Nc2nc3c(N4CCNCC4)cc(C(=O)O)cc3s2)c(Cl)c1Cl.Cl [8b, 4-(6-Carboxy-2-(3,4-dichloro-5-methyl-1H-pyrrole-2-carboxamido)benzo[d]thiazol-4-yl)piperazin-1-ium Chloride]",16,–,32,32,120 ± 15,< 10,> 64,64,64,64,–
"Cc1[nH]c(C(=O)Nc2nc3c(N4CCOCC4)cc(C(=O)O)cc3s2)cc1C#N [16c, 2-(4-Cyano-5-methyl-1H-pyrrole-2-carboxamido)-4-morpholinobenzo[d]thiazole-6-carboxylic Acid]",> 64,> 64,> 64,> 64,–,32 ± 9,> 64,> 64,–,> 64,IC50 (topo IV from E. coli; read-out: IC50): 440 nM
Cc1[nH]c(C(=O)Nc2nc3c(OCc4ccccc4)cc(C(=O)O)cc3s2)c(Cl)c1Cl [E],–,–,–,–,–,–,–,–,–,–,"fraction unbound at 4 h, 5 μM (in vitro; mouse plasma, 5 µM, 4 h, read-out: fu, fraction unbound): < 0.001; fraction unbound at 4 h, 5 μM (in vitro; read-out: plasma protein binding (PPB)): < 0.01; recovery at 4 h, 5 μM (in vitro; plasma protein binding assay): 94.1%; MIC [1]: <0.03125 µg/mL; MIC ([1]; Enterococcus faecalis, ATCC29212): < 0.0312 µg/mL; MIC (E. faecium ATCC 700221): 0.0625 µg/mL; MIC [2]: 0.0625 µg/mL; MIC [3]: >64 µg/mL; MIC ([3]; Enterobacter cloacae, ATCC13047): > 64 µg/mL; MIC (K. pneumoniae ATCC 10031; Klebsiella pneumoniae, ATCC10031): 4 µg/mL; MIC (P. aeruginosa ATCC 27853): 2 µg/mL; MIC [4]: <0.03125 µg/mL; MIC ([4]; Staphylococcus aureus): < 0.0312 µg/mL; MIC (E. coli ATCC 25922): 16 µg/mL; MIC (A. baumannii ATCC 17978): 2 µg/mL; MIC (S. aureus ATCC 29213): 0.5 µg/mL"
"C=C(C)[C@H]1Cc2c(ccc3c2O[C@@H]2COc4cc(OC)c(OC)cc4[C@@H]2C3=O)O1 [Rot, Rotenone]",–,–,–,–,–,–,–,–,–,–,"viability at 24 h, 0.1 µM ([5]; galactose): 1%; viability at 24 h, 0.1 µM ([5]; glucose): 64%"
"Cc1[nH]c(C(=O)Nc2nc3c(CN4CCOCC4)cc(C(=O)O)cc3s2)c(Cl)c1Cl.Cl [compound 14, 4-((6-Carboxy-2-(3,4-dichloro-5-methyl-1H-pyrrole-2-carboxamido)benzo[d]thiazol-4-yl)methyl)morpholin-4-ium Chloride]",> 64,–,16,16,460 ± 120,13 ± 5,> 64,> 64,> 64,64,–
